Counter-ions that a name gives are not always drawn.
Test: Solubility of pioglitazone hydrochloride
Type: physicochemical
Method: For pioglitazone hydrochloride the intrinsic dissolution rates in aqueous media are only above 1000 μg/cm^2/min at pH 1, whereas for less acidic solutions (e.g. pH 2) the intrinsic dissolution rates are below 100 μg/cm^2/min. Therefore, the intrinsic dissolution rate of pioglitazone hydrochloride may be rate limiting for dissolution/absorption of the composition and pose an additional risk for providing similar dissolution profiles of pioglitazone hydrochloride in the composition to the original mono tablets (e.g. Actos) or combination market tablets (e.g. Duetact, Competact) and/or for matching bioequivalence with the original mono or combination market tablets.

solubility in strongly acidic media (strongly acidic media): slightly better solubility
solubility in water (water): practically insoluble
solubility in weak acidic and neutral to basic media (weak acidic and neutral to basic media): very poor solubility
Compound: CCc1ccc(CCOc2ccc(CC3SC(=O)NC3=O)cc2)nc1 (stereo not drawn) [pioglitazone hydrochloride]
